{"source": "patent US20180015017A1", "about": "“USE OF GLUCOSYLGLYCEROL” (Bitop AG, priority 2008, published 2018)", "key": {"SOD-1": {"tested_on": "SOD-1", "assay": "Expression of SOD-1 mRNA in keratinocytes (33P-labeled cDNA chip, phosphor imaging)", "format": "cell-based, human", "settings": "for Upregulation of the cytosolic SOD-1: relative amount of hybridized targets (radioactivity, phosphor imaging): NHEK keratinocytes, 0.5-% (w/w) aqueous solution; for increase of the expression of SOD-1: keratinocytes, 0.5-% glucosylglycerol solution", "procedure": "(§1) In these tests appropriate cell cultures were treated with a glucosylglycerol solution and the transcribed mRNA quantified. For this purpose the mRNA was first extracted to produce a ^33P labeled target with the help of a reverse transcriptase. Following this, these targets were applied to a cDNA chip and the radioactivity measured by means of the phosphor imaging method. The cDNA chip contained an array of the cDNAs of various proteins.\n(§2) The investigations were carried out with epidermal keratinocytes (NHEK, normal human epidermal keratinocytes) and dermal fibroblasts (NHDF, normal human dermal fibroblasts). In the case of the keratinocytes a 0.5-% (w/w) and in the case of the fibroblasts a 1-% (w/w) aqueous glucosylglycerol solution was used for the treatment.\nKeratinocytes: Keratinocyte-SFM (Invitrogen 17005-034) blended with epidermal growth factor (EGF) 0.25 ng/ml, pituitary extract (PE) 25 μg/ml (Invitrogen 3700015), Gentamycin […] (Sigma G1397).\n(§3) Culturing took place for a period of 24 and 96 hours. At the end of the incubation period the cells were washed with PBS solution (Invitrogen 14190094).\n(§4) The extraction of mRNA of each culture was achieved using TriReagent as per a standard protocol. The relevant cDNAs with ^33P-labeled targets was produced by reverse transcription of mRNA using [α^33P]-dATP and oligodT.\n(§5) The labeled cDNA targets were hybridized to the specific cDNA probes covalently fixed to minichips. After thorough washing the relative amount of the hybridized targets was determined by means of the phosphor imaging method. This analysis was performed by measuring the radioactivity by means of a “Cyclone” Phosphor Imager (Packard Instruments; 72 hours exposure time) and using the ImageQuant TL-Software (Amersham Biosiences)."}, "SOD-2": {"tested_on": "SOD-2", "assay": "Expression of SOD-2 mRNA in fibroblasts (33P-labeled cDNA chip, phosphor imaging)", "format": "cell-based, human", "settings": "for Upregulation of SOD-2: relative amount of hybridized targets (radioactivity, phosphor imaging): NHDF fibroblasts, 1-% (w/w) aqueous solution", "procedure": "as §1, §2\nFibroblasts: DMEM (Invitrogen 21969035), blended with L-glutamine 2 mM (Invitrogen 25030024), Penicillin 50 Ul/ml/Streptomycin 50 μg/ml (Invitrogen 15070063), fetal calf serum 10% (FCS, Invitrogen 10270098).\nas §3, §4, §5"}}}
{"smiles": "OCC(CO)O[C@H]1O[C@H](CO)[C@@H](O)[C@H](O)[C@H]1O", "note": "[glucosylglycerol, 2-O-α-D-glucosylglycerol]", "values": [{"measurement": "Upregulation of the cytosolic SOD-1: relative amount of hybridized targets (radioactivity, phosphor imaging)", "setting": "SOD-1; 24 h, control 18.2", "value": 85}, {"measurement": "Upregulation of the cytosolic SOD-1: relative amount of hybridized targets (radioactivity, phosphor imaging)", "setting": "SOD-1; 96 h, control 9.3", "value": 182}, {"measurement": "increase of the expression of SOD-1", "setting": "SOD-1; within 24 hours", "value": 4.7, "unit": "times"}, {"measurement": "increase of the expression of SOD-1", "setting": "SOD-1; within 96 hours", "value": 19.6, "unit": "times"}, {"measurement": "Upregulation of SOD-2: relative amount of hybridized targets (radioactivity, phosphor imaging)", "setting": "SOD-2; 24 h, control 16.5", "value": 419}, {"measurement": "Upregulation of SOD-2: relative amount of hybridized targets (radioactivity, phosphor imaging)", "setting": "SOD-2; 96 h, control 9.1", "value": 313}, {"measurement": "higher expression of SOD-2", "setting": "SOD-2; fibroblasts, 1-% glucosylglycerol solution, within 24 hours", "value": 25.4, "unit": "times"}, {"measurement": "increase of expression of SOD-2", "setting": "SOD-2; fibroblasts, 1-% glucosylglycerol solution, within 96 hours", "value": 34.4, "unit": "fold"}]}
